Laboratory results from US12024510B2, “Pyrazolopyridine-diamides, their use as insecticide and processes for preparing the same” (PI INDUSTRIES LTD., priority 2017, dated 2024).

Key:
Assay type in all cases: in vivo
[1] = test system: Plutella xylostella; test: whole plant or invertebrate; conditions: foliar, cabbage leaf dip, second instar larvae, dead and moribund combined, 72 h after release
In short: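 Leaf-dip bioassay: second-instar larvae, singly, fed on cabbage leaves dipped 10 s in test dispersion (bead-milled, diluted with 0.01% Triton-X to test concentration) and dried 20 min. Held at 25 °C, 70% RH; % mortality counts dead and moribund at 72 h.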

[2] = test system: Spodoptera litura; test: Spodoptera litura diet incorporation method; conditions: third instar larvae, dead and moribund combined, 96 h after release
In short: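 Compound milled to <2 μm average particle size in surfactant, dispersed in water (500 ppm stock dispersion), then mixed into semi-synthetic diet at ~50° C. One starved third-instar larva per diet cell, 25° C, 70% RH; percent mortality (dead plus moribund) scored at 96 h.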

[3] = test system: Helicoverpa armigera; test: Helicoverpa armigera diet incorporation method; conditions: third instar larvae, dead and moribund combined, 96 h after release
In short: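 Third-instar larvae, starved, were placed singly on diet pieces containing test dispersion (bead-milled in surfactant, particles under 2 μm, 500 ppm stock then diluted). Trays kept at 25° C. and 70% RH; mortality counted at 96 h, moribund larvae counted with dead.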

Measured: mortality at 300 ppm

Cc1cc2ccnn2c(C(=O)NCC(F)F)c1NC(=O)c1cc(Br)nn1-c1ncccc1Cl [Compound 186, 6-(3-bromo-1-(3-chloropyridin-2-yl)-1H-pyrazole-5-carboxamido)-N-(2,2-difluoroethyl)-5-methylpyrazolo[1,5-a]pyridine-7-carboxamide]
> 70%: all assays above

O=C(Nc1c(Br)cc2ccnn2c1C(=O)NC1CC1)c1cc(Br)nn1-c1ncccc1Cl [Compound 52, 5-bromo-6-(3-bromo-1-(3-chloropyridin-2-yl)-1H-pyrazole-5-carboxamido)-N-cyclopropylpyrazolo[1,5-a]pyridine-7-carboxamide]
> 70%: all assays above

O=C(Nc1c(Cl)cc2ccnn2c1C(=O)NCC1CC1)c1cc(Br)nn1-c1ncccc1Cl [Compound 140, 6-(3-bromo-1-(3-chloropyridin-2-yl)-1H-pyrazole-5-carboxamido)-5-chloro-N-(cyclopropylmethyl)pyrazolo[1,5-a]pyridine-7-carboxamide]
> 70%: all assays above

COCCNC(=O)c1c(NC(=O)c2cc(OC)nn2-c2ncccc2Cl)c(C)cc2ccnn12 [Compound 33, 6-(1-(3-chloropyridin-2-yl)-3-methoxy-1H-pyrazole-5-carboxamido)-N-(2-methoxyethyl)-5-methylpyrazolo[1,5-a]pyridine-7-carboxamide]
> 70%: all assays above

CCNC(=O)c1c(NC(=O)c2cc(Br)nn2-c2ncccc2Cl)c(Br)cc2ccnn12 [Compound 76, 5-bromo-6-(3-bromo-1-(3-chloropyridin-2-yl)-1H-pyrazole-5-carboxamido)-N-ethylpyrazolo[1,5-a]pyridine-7-carboxamide]
> 70%: all assays above

CONC(=O)c1c(NC(=O)c2cc(OCC(F)(F)F)nn2-c2ncccc2Cl)c(C)cc2ccnn12 [Compound 16, 6-(1-(3-chloropyridin-2-yl)-3-(2,2,2-trifluoroethoxy)-1H-pyrazole-5-carboxamido)-N-methoxy-5-methylpyrazolo[1,5-a]pyridine-7-carboxamide]
> 70%: all assays above

CCCNC(=O)c1c(NC(=O)c2cc(Br)nn2-c2ncccc2Cl)c(Br)cc2ccnn12 [Compound 50, 5-bromo-6-(3-bromo-1-(3-chloropyridin-2-yl)-1H-pyrazole-5-carboxamido)-N-propylpyrazolo[1,5-a]pyridine-7-carboxamide]
> 70%: all assays above

COc1cc(C(=O)Nc2c(Br)cc3ccnn3c2C(=O)NC(C)C(F)(F)F)n(-c2ncccc2Cl)n1 (stereo not drawn) [Compound 226, 5-bromo-6-(1-(3-chloropyridin-2-yl)-3-methoxy-1H-pyrazole-5-carboxamido)-N-(1,1,1-trifluoropropan-2-yl)pyrazolo[1,5-a]pyridine-7-carboxamide]
> 70%: all assays above

Cc1cc2ccnn2c(C(=O)NC(C)C)c1NC(=O)c1cc(Br)nn1-c1ncccc1Cl [Compound 4, 6-(3-bromo-1-(3-chloropyridin-2-yl)-1H-pyrazole-5-carboxamido)-N-isopropyl-5-methylpyrazolo[1,5-a]pyridine-7-carboxamide]
> 70%: all assays above
